Measured values: patent publication US12590091B2, “1H-pyrrolo[3,2-C]pyridine and 1H-pyrrolo[2,3-C]pyridine derivatives as TLR9 inhibitors for the treatment of fibrosis” (BRISTOL-MYERS SQUIBB COMPANY, priority 2020, dated 2026)

Tests used:
[1] = target: T1, human TLR8 (Homo sapiens, UniProt Q9NR97); experiment: TLR8 inhibition reporter assay (HEK-Blue cells, SEAP reporter); assay type: cell-based; details: HEK-Blue cells overexpressing human TLR8, stimulated with R848 15.9 μM, 22 hour incubation
T1 construct: host or cells: HEK-Blue cells
T1 sequence (Q9NR97 27-1041): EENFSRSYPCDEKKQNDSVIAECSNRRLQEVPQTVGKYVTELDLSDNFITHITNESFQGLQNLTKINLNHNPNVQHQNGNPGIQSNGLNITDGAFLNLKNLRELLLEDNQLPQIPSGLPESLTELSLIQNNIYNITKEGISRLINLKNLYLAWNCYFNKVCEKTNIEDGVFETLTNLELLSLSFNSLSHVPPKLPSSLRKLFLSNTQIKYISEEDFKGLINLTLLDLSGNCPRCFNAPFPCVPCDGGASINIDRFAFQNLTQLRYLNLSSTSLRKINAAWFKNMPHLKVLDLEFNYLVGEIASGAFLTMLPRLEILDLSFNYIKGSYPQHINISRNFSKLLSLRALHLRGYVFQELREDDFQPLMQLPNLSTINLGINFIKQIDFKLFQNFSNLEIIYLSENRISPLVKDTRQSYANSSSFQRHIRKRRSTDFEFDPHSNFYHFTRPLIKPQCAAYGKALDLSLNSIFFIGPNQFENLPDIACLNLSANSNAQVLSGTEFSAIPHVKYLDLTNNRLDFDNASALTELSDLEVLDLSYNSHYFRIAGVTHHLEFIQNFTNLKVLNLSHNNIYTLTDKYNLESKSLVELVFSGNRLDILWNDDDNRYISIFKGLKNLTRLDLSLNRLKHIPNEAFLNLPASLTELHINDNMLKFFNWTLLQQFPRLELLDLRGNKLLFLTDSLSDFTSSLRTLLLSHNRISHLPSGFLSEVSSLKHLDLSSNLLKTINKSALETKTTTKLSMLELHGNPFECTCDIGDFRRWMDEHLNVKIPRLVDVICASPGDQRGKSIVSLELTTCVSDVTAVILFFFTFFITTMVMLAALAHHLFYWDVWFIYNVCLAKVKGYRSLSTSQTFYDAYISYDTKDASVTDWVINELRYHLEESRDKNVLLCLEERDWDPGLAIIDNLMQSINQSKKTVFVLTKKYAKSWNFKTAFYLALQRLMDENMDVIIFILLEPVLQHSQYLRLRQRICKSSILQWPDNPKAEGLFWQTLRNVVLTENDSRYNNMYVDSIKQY
Experimental: (§1) TLR7/8/9 Inhibition Reporter Assays
(§2) HEK-Blue™-cells (Invivogen) overexpressing human TLR7, TLR8 or TLR9 receptors were used for screening inhibitors of these receptors using an inducible SEAP (secreted embryonic alkaline phosphatase) reporter gene under the control of the IFN-β minimal promoter fused to five NF-κB and AP-1-binding sites. Briefly, cells are seeded into Greiner 384 well plates (15000 cells per well for TLR7, 20,000 for TLR8 and 25,000 for TLR9) and then treated with test compounds in DMSO to yield a final dose response concentration range of 0.05 nM-50 μM. After a 30 minute compound pre-treatment at room temperature, the cells are then stimulated with a TLR7 ligand (gardiquimod at a final concentration of 7.5 μM), TLR8 ligand (R848 at a final concentration of 15.9 μM) or TLR9 ligand (ODN2006 at a final concentration of 5 nM) to activate NF-κB and AP-1 which induce the production of SEAP. After a 22 hour incubation at 37° C., 5% CO2, SEAP levels are determined with the addition of HEK-Blue™ Detection reagent (Invivogen), a cell culture medium that allows for detection of SEAP, according to manufacturer's specifications. The percent inhibition is determined as the % reduction in the HEK-Blue signal present in wells treated with agonist plus DMSO alone compared to wells treated with a known inhibitor.

[2] = target: T2, human TLR7 (Homo sapiens, UniProt Q9NYK1); experiment: TLR7 inhibition reporter assay (HEK-Blue cells, SEAP reporter); assay type: cell-based; details: HEK-Blue cells overexpressing human TLR7, stimulated with gardiquimod 7.5 μM, 22 hour incubation
T2 construct: host or cells: HEK-Blue cells
T2 sequence (Q9NYK1 27-1049): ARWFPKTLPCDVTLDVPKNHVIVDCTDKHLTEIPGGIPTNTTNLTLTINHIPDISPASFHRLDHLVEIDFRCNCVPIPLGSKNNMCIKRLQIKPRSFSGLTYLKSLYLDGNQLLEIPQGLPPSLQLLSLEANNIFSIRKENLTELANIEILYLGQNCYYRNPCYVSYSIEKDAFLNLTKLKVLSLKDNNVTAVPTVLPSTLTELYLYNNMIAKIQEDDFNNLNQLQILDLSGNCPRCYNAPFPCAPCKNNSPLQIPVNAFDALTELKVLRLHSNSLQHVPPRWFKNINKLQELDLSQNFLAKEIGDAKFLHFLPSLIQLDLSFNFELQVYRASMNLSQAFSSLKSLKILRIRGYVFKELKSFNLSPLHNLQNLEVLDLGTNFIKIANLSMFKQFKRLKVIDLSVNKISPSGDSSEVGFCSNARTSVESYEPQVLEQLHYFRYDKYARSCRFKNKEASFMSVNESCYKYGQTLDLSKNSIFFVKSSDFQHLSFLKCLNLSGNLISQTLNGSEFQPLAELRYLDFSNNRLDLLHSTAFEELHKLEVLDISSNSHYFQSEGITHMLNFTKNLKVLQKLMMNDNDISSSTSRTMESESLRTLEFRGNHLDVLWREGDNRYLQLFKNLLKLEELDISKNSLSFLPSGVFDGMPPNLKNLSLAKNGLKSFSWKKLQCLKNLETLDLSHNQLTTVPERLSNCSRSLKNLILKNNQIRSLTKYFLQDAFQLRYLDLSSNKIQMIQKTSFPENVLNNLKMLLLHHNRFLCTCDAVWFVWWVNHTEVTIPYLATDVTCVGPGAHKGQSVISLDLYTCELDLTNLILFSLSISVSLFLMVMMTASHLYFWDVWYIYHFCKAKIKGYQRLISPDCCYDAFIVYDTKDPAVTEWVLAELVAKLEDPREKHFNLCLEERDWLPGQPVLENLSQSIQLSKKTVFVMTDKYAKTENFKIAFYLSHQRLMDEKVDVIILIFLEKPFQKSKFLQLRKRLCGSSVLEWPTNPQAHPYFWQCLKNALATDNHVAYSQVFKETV
Experimental: as §1, §2

| IC50 [1] [µM] | IC50 [2] [µM] | SMILES |
| --- | --- | --- |
| 9.4 | 2.7 | COCCN1C2CCC1CN(c1cc(F)c(-c3cc4c(cc(-c5ccc(S(C)(=O)=O)cc5)n4C)c(C)n3)cc1F)C2 [Example 78, 6-(2,5-difluoro-4-(8-(2-methoxyethyl)-3,8-diazabicyclo[3.2.1]octan-3-yl)phenyl)-1,4-dimethyl-2-(4-(methylsulfonyl)phenyl)-1H-pyrrolo[3,2-c]pyridine] |
| 19 | 3.2 | Cc1nc(-c2ccc(CN3CCN(CCC(C)(C)O)CC3)cc2)cc2c1cc(-c1ccc(S(C)(=O)=O)cc1)n2C1CC1 [Example 116, 4-[4-[[4-[1-cyclopropyl-4-methyl-2-(4-methylsulfonylphenyl)pyrrolo[3,2-c]pyridin-6-yl]phenyl]methyl]piperazin-1-yl]-2-methyl-butan-2-ol] |
| 19.2 | 1.9 | Cc1nc(-c2ccc(N3CC4CCC(C3)N4CCCO)c(F)c2)cc2c1cc(-c1ccc(S(C)(=O)=O)cc1)n2C [Example 77, 3-(3-(4-(1,4-dimethyl-2-(4-(methylsulfonyl)phenyl)-1H-pyrrolo[3,2-c]pyridin-6-yl)-2-fluorophenyl)-3,8-diazabicyclo[3.2.1]octan-8-yl)propan-1-ol] |
| > 25 | 14.7 | Cc1nc(-c2ccc(N3CCN(CCCO)CC3)cc2)cc2c1cc(-c1ccc(S(=O)(=O)C3CC3)cc1)n2C [Example 47, 3-(4-(4-(2-(4-(cyclopropylsulfonyl)phenyl)-1,4-dimethyl-1H-pyrrolo[3,2-c]pyridin-6-yl)phenyl)piperazin-1-yl)propan-1-ol] |
| 23.5 | 9.5 | COc1ccc(-c2c(C)[nH]c3cnc(C4CCN(C5CCN(C(=O)OCc6ccccc6)CC5)CC4)cc23)cc1OC [Example 4, Benzyl 4-(3-(3,4-dimethoxyphenyl)-2-methyl-1H-pyrrolo[2,3-c]pyridin-5-yl)-[1,4′-bipiperidine]-1′-carboxylate] |
| 5.6 | 3.6 | CC(C)(O)CCN1CCN(Cc2ccc(-c3cc4c(cn3)cc(-c3ccc(S(C)(=O)=O)cc3)n4C3CC3)cc2)CC1 [Example 129, 4-(4-(4-(1-cyclopropyl-2-(4-(methylsulfonyl)phenyl)-1H-pyrrolo[3,2-c]pyridin-6-yl)benzyl)piperazin-1-yl)-2-methylbutan-2-ol] |
| 1.5 | 2.9 | COc1ccc(-c2cc3cnc(-c4ccc(N5CCN(CC6CC6)CC5)cc4)cc3n2C)cc1OC [Example 9, 6-(4-(4-(Cyclopropylmethyl)piperazin-1-yl)phenyl)-2-(3,4-dimethoxyphenyl)-1-methyl-1H-pyrrolo[3,2-c]pyridine] |

The remaining lines, values behind:

| SMILES | IC50 [1] [µM] | IC50 [2] [µM] |
| --- | --- | --- |
| Cc1nc(-c2ccc(N3CCN(C4CCOCC4)CC3)cc2)cc2c1cc(-c1ccc(S(C)(=O)=O)cc1)n2C [Example 35, 1,4-dimethyl-2-(4-(methylsulfonyl)phenyl)-6-(4-(4-(tetrahydro-2H-pyran-4-yl)piperazin-1-yl)phenyl)-1H-pyrrolo[3,2-c]pyridine] | > 25 | 16.8 |
| COCCN1CCN(c2ccc(-c3cc4c(cc(-c5ccc(S(C)(=O)=O)cc5)n4C)c(C)n3)cc2)CC1 [Example 38, 6-(4-(4-(2-methoxyethyl)piperazin-1-yl)phenyl)-1,4-dimethyl-2-(4-(methylsulfonyl)phenyl)-1H-pyrrolo[3,2-c]pyridine] | 11.8 | 2.6 |
| CC(C)N1CCN(c2ccc(-c3cc4c(cn3)cc(-c3ccc(S(C)(=O)=O)cc3)n4C)cc2)CC1 [Example 54, 6-(4-(4-isopropylpiperazin-1-yl)phenyl)-1-methyl-2-(4-(methylsulfonyl)phenyl)-1H-pyrrolo[3,2-c]pyridine] | > 50 | 4.6 |
| Cc1nc(C2CCN(C3CC4CCC(C3)N4CC(C)C)CC2)cc2c1cc(-c1ccc(S(C)(=O)=O)cc1)n2C (centres unmarked) [Example 114, 6-(1-(8-isobutyl-8-azabicyclo[3.2.1]octan-3-yl)piperidin-4-yl)-1,4-dimethyl-2-(4-(methylsulfonyl)phenyl)-1H-pyrrolo[3,2-c]pyridine] | > 50 | 14.2 |
| COc1ccc(-c2c(C)[nH]c3cnc(C4CCN(C(=O)CCN5CCCC5)CC4)cc23)cc1OC [Example 23, 1-(4-(3-(3,4-dimethoxyphenyl)-2-methyl-1H-pyrrolo[2,3-c]pyridin-5-yl)piperidin-1-yl)-3-(pyrrolidin-1-yl)propan-1-one] | > 50 | > 50 |
| Cc1nc(-c2ccc(C3(O)CCN(C(C)C)CC3)c(F)c2)cc2c1cc(-c1ccc(S(C)(=O)=O)cc1)n2C [Example 107, 4-(4-(1,4-dimethyl-2-(4-(methylsulfonyl)phenyl)-1H-pyrrolo[3,2-c]pyridin-6-yl)-2-fluorophenyl)-1-isopropylpiperidin-4-ol] | 2.7 | 2.1 |
| CC(C)(O)CN1CC2CCC(C1)N2Cc1ccc(-c2cc3c(cn2)cc(-c2ccc(S(C)(=O)=O)cc2)n3C2CC2)cc1 [Example 130, 1-(8-(4-(1-cyclopropyl-2-(4-(methylsulfonyl)phenyl)-1H-pyrrolo[3,2-c]pyridin-6-yl)benzyl)-3,8-diazabicyclo[3.2.1]octan-3-yl)-2-methylpropan-2-ol] | 6.4 | 1.9 |
| Cc1nc(-c2ccc(C3(O)CC4CCC(C3)N4C)c(F)c2)cc2c1cc(-c1ccc(S(C)(=O)=O)cc1)n2C [Example 102, (1R,3r,5S)-3-(4-(1,4-dimethyl-2-(4-(methylsulfonyl)phenyl)-1H-pyrrolo[3,2-c]pyridin-6-yl)-2-fluorophenyl)-8-methyl-8-azabicyclo[3.2.1]octan-3-ol] | 1 | 5.5 |
| COCCN1C2CCC1CN(c1ccc(-c3cc4c(cc(-c5ccc(S(C)(=O)=O)cc5)n4C)c(C)n3)cc1F)C2 [Example 75, 6-(3-fluoro-4-(8-(2-methoxyethyl)-3,8-diazabicyclo[3.2.1]octan-3-yl)phenyl)-1,4-dimethyl-2-(4-(methylsulfonyl)phenyl)-1H-pyrrolo[3,2-c]pyridine] | 9.6 | 2.2 |
